Reference: patent US20260232767A1, “INTERLEUKIN-23 RECEPTOR ANTAGONIST PEPTIDES FOR USE IN THE TREATMENT OF PSORIASIS” (Janssen Pharmaceutica NV, priority 2023, published 2026)

System: scalp psoriasis
Assay: Scalp Specific IGA (ss-IGA), Example 1
Assay type: in vivo, human
Details: Week 16
Procedure: The Scalp Specific Investigator Global Assessment (ss-IGA) instrument is used to evaluate the disease severity of scalp psoriasis. The lesions are assessed in terms of the clinical signs of redness, thickness, and scaliness which are scored as: absence of disease (0), very mild disease (1), mild disease (2), moderate disease (3), and severe disease (4).
Clinician-reported outcomes including Psoriasis Area and Severity Index (PASI), Body Surface Area (BSA), Investigator's Global Assessment (IGA), Nail Psoriasis Area and Severity Index (NAPSI), Fingernail Physician's Global Assessment (f-PGA), Static Physician's Global Assessment of Genitalia (s-PGA-G), Physician's Global Assessment of Hands and/or Feet (hf-PGA), and Scalp Specific Investigator Global Assessment (ss-IGA) were obtained at Week 0, 8, and 16. PASI and IGA were also obtained at Weeks 1, 2, 4, and 12, and at Week 20, four weeks after the administration of the tablets has stopped.
Proportion of Patients Achieving scalp-specific (ss)-IGA score 0/1 and ss-IGA score 0 and With at Least a 2-Grade Improvement from baseline at Week 16.

Structure (SMILES): CC(=O)NCCCC[C@@H]1NC(=O)[C@H](Cc2c[nH]c3c(C)cccc23)NC(=O)[C@H]([C@@H](C)O)NC(=O)[C@H](CC(N)=O)NC(=O)[C@@H](NC(C)=O)C(C)(C)SSC(C)(C)[C@@H](C(=O)N[C@@H](Cc2ccc(OCCN)cc2)C(=O)N[C@@H](Cc2ccc3ccccc3c2)C(=O)NC2(C(=O)N[C@@H](CCC(=O)O)C(=O)N[C@@H](CC(N)=O)C(=O)N[C@@H](Cc3cccnc3)C(=O)N(C)CC(N)=O)CCOCC2)NC1=O [IL-23 receptor antagonist peptide, Ac-[Pen]*-N-T-[W(7-Me)]-[Lys(Ac)]-[Pen]*-Phe[4-(2-aminoethoxy)]-[2-Nal]-[THP]-E-N-[3-Pal]-Sarc-NH2 (*[Pen]-[Pen]* formdisulfidebond)]
- ss-IGA score 0/1 and ≥2-grade improvement from baseline, % (25 mg BID, baseline ss-IGA score ≥2, n=32): (65.6) %
- ss-IGA score 0/1 and ≥2-grade improvement from baseline, % (25 mg QD, baseline ss-IGA score ≥2, n=37): (32.4) %
- ss-IGA score 0/1 and ≥2-grade improvement from baseline, % (50 mg QD, baseline ss-IGA score ≥2, n=40): 70.0%
- ss-IGA score 0/1 and ≥2-grade improvement from baseline, % (100 mg BID, baseline ss-IGA score ≥2, n=36): 75.0%
- ss-IGA score 0/1 and ≥2-grade improvement from baseline, % (100 mg QD, baseline ss-IGA score ≥2, n=40): 67.5%
- Response rate ss-IGA score 0/1 with ≥2-grade improvement from baseline (all doses vs placebo): significantly higher than placebo
